# From patent US9708311B2, “Benzimidazole derivatives as EP4 antagonists” (BAYER PHARMA AKTIENGESELLSCHAFT, priority 2012, dated 2017)
# Target: human EP4 receptor (Homo sapiens (Human), UniProt P35408)
# Assay: Test for antagonism of the human EP4 receptor signal (cAMP HTRF)
# Assay type: cell-based
# Settings: cells expressing hEP4, PGE2 at EC80 (0.4 nM), cAMP TR-FRET; read-out: Antagonism hEP4 IC50
# From the text: The binding of the agonist prostaglandin E2 (PGE2) to the EP4 subtype of human hPGE2-R (hEP4-R) induces the activation of membrane-bound adenylate cyclases and thus the formation of cAMP. In the presence of the phosphodiesterase inhibitor IBMX, this cAMP accumulates intracellularly and is employed in a competitive detection procedure after cell lysis. In this procedure, it competes with a fluorescence-labelled cAMP (cAMP-d2) for binding to an Eu cryptate-labelled anti-cAMP antibody. In the absence of cellular cAMP, a complex is formed between the Eu cryptate-labelled anti-cAMP antibody and the cAMP-d2 molecule, which after excitation at 337 nm makes possible an energy transfer based on FRET (fluorescence resonance energy transfer) to the cAMP-d2 tracer and leads to a long-lasting fluorescence signal (emission at 665 and 620 nm). This signal is time-resolved, i.e. measured in a suitable measuring apparatus after decay of the background fluorescence (time resolved; TR-FRET). The wave ratio determination (emission 665 nm/emission 620 nm*10000) moreover makes it possible to standardize individual measurement differences in the added amounts of the detection reagents.
# By means of prostaglandin E2 administration and increase in the intracellular cAMP, a lowering of the FRET signal occurs, which in the case of an antagonistic substance action increases again.
# A further 20 min at room temperature later, the cell lysate is measured according to the manufacturer's instructions in a TR-FRET-suitable measuring apparatus (compare cAMP HTRF assay kit: Cisbio International 62AM6PEJ high range)
# Sequence of human EP4 receptor (P35408 whole entry): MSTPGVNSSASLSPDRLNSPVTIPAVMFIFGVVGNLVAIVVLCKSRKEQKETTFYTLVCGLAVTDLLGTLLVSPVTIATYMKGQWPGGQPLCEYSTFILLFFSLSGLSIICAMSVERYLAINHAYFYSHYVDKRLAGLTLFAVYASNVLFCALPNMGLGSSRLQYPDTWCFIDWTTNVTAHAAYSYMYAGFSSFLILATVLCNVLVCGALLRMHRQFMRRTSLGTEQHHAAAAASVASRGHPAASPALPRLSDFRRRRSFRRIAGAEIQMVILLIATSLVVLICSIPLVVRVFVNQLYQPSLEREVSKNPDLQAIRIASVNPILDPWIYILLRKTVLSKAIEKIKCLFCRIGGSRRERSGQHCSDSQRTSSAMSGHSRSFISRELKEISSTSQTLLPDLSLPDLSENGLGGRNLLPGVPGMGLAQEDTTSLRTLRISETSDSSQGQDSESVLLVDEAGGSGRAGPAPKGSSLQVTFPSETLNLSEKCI
row,Compound,IC50 [nM]
1,"C=CCn1c(-c2ccc3c(c2)c2ccccc2n3CC)nc2cc(C(=O)OC)ccc21 [Example 1, Methyl 1-allyl-2-(9-ethyl-9H-carbazol-3-yl)-1H-benzimidazole-5-carboxylate]",3100
2,"C=CCn1c(-c2ccc3c(c2)c2ccccc2n3CC)nc2cc(C(=O)O)ccc21 [Example 2, 1-Allyl-2-(9-ethyl-9H-carbazol-3-yl)-1H-benzimidazole-5-carboxylic acid]",312
3,"CCn1c2ccccc2c2cc(-c3nc4cc(C(=O)OC)ccc4n3CCOC)ccc21 [Example 3, Methyl 2-(9-ethyl-9H-carbazol-3-yl)-1-(2-methoxyethyl)-1H-benzimidazole-5-carboxylate]",175
4,"CCn1c2ccccc2c2cc(-c3nc4cc(C(=O)OC)ccc4n3CC3CC3)ccc21 [Example 5, Methyl 1-(cyclopropylmethyl)-2-(9-ethyl-9H-carbazol-3-yl)-1H-benzimidazole-5-carboxylate]",404
5,"CCn1c2ccccc2c2cc(-c3nc4cc(C(=O)O)ccc4n3CC3CC3)ccc21 [Example 6, 1-(Cyclopropylmethyl)-2-(9-ethyl-9H-carbazol-3-yl)-1H-benzimidazole-5-carboxylic acid]",14.4
6,"CCn1c2ccccc2c2cc(-c3nc4c(Cl)c(C(=O)OC)ccc4n3CC3CC3)ccc21 [Example 7, Methyl 4-chloro-1-(cyclopropylmethyl)-2-(9-ethyl-9H-carbazol-3-yl)-1H-benzimidazole-5-carboxylate]",1430
7,"CCn1c2ccccc2c2cc(-c3nc4c(Cl)c(C(=O)O)ccc4n3CC3CC3)ccc21 [Example 8, 4-Chloro-1-(cyclopropylmethyl)-2-(9-ethyl-9H-carbazol-3-yl)-1H-benzimidazole-5-carboxylic acid]",19.7
8,"CCn1c2ccccc2c2cc(-c3nc4c(C)c(C(=O)O)ccc4n3CC3CC3)ccc21 [Example 9, 1-(Cyclopropylmethyl)-2-(9-ethyl-9H-carbazol-3-yl)-4-methyl-1H-benzimidazole-5-carboxylic acid]",71.2
9,"CCn1c2ccc(-c3nc4cc(C(=O)O)ccc4n3CCOC)cc2c2c(F)cccc21 [Example 11, 2-(9-Ethyl-5-fluoro-9H-carbazol-3-yl)-1-(2-methoxyethyl)-1H-benzimidazole-5-carboxylic acid]",6.36
10,"CCn1c2ccc(-c3nc4cc(C(=O)O)ccc4n3CCOC)cc2c2cccc(F)c21 [Example 12, 2-(9-Ethyl-8-fluoro-9H-carbazol-3-yl)-1-(2-methoxyethyl)-1H-benzimidazole-5-carboxylic acid]",10.2
11,"COCCn1c2ccccc2c2cc(-c3nc4cc(C(=O)O)ccc4n3CC3CC3)ccc21 [Example 13, 1-(Cyclopropylmethyl)-2-[9-(2-methoxyethyl)-9H-carbazol-3-yl]-1H-benzimidazole-5-carboxylic acid]",18
12,"CCn1c2ccccc2c2cc(-c3nc4cc(C(=O)O)ccc4n3CC3CC3)cnc21 [Example 14, 1-(Cyclopropylmethyl)-2-(9-ethyl-9H-pyrido[2,3-b]indol-3-yl)-1H-benzimidazole-5-carboxylic acid]",33.4
13,"CCn1c2ccccc2c2cc(-c3nc4cc(C(=O)NS(C)(=O)=O)ccc4n3CCOC)ccc21 [Example 15, 2-(9-Ethyl-9H-carbazol-3-yl)-1-(2-methoxyethyl)-N-(methylsulphonyl)-1H-benzimidazole-5-carboxamide]",23.8
14,"CCn1c2ccccc2c2cc(-c3nc4cc(C(=O)NS(=O)(=O)C5CC5)ccc4n3CCOC)ccc21 [Example 16, N-(Cyclopropylsulphonyl)-2-(9-ethyl-9H-carbazol-3-yl)-1-(2-methoxyethyl)-1H-benzimidazole-5-carboxamide]",28.6
15,"CCn1c2ccccc2c2cc(-c3nc4cc(C(=O)NS(=O)(=O)c5cccc(Cl)c5)ccc4n3CCOC)ccc21 [Example 17, N-[(3-Chlorophenyl)sulphonyl]-2-(9-ethyl-9H-carbazol-3-yl)-1-(2-methoxyethyl)-1H-benzimidazole-5-carboxamide]",14.7
16,"CCn1c2ccccc2c2cc(-c3nc4cc(C(=O)NS(=O)(=O)CC)ccc4n3CCOC)ccc21 [Example 18, 2-(9-Ethyl-9H-carbazol-3-yl)-N-(ethylsulphonyl)-1-(2-methoxyethyl)-1H-benzimidazole-5-carboxamide]",22.8
17,"CCn1c2ccccc2c2cc(-c3nc4cc(C(=O)NS(=O)(=O)c5ccc(OC)cc5)ccc4n3CCOC)ccc21 [Example 19, 2-(9-Ethyl-9H-carbazol-3-yl)-1-(2-methoxyethyl)-N-[(4-methoxyphenyl)sulphonyl]-1H-benzimidazole-5-carboxamide]",32.2
18,"CCn1c2ccccc2c2cc(-c3nc4cc(C(=O)NS(=O)(=O)CCc5ccc(C(F)(F)F)cc5)ccc4n3CCOC)ccc21 [Example 20, 2-(9-Ethyl-9H-carbazol-3-yl)-1-(2-methoxyethyl)-N-({2-[4-(trifluoromethyl)phenyl]ethyl}-sulphonyl)-1H-benzimidazole-5-carboxamide]",683
19,"CCn1c2ccccc2c2cc(-c3nc4cc(C(=O)NCCOC)ccc4n3CC3CC3)ccc21 [Example 21, 1-(Cyclopropylmethyl)-2-(9-ethyl-9H-carbazol-3-yl)-N-(2-methoxyethyl)-1H-benzimidazole-5-carboxamide]",103
20,"CCn1c2ccccc2c2cc(-c3nc4cc(C(=O)N5CCCC5)ccc4n3CC3CC3)ccc21 [Example 22, [1-(Cyclopropylmethyl)-2-(9-ethyl-9H-carbazol-3-yl)-1H-benzimidazol-5-yl](pyrrolidin-1-yl)methanone]",65.7
21,"CCn1c2ccccc2c2cc(-c3nc4cc(C(=O)N5CC(O)C5)ccc4n3CC3CC3)ccc21 [Example 23, [1-(Cyclopropylmethyl)-2-(9-ethyl-9H-carbazol-3-yl)-1H-benzimidazol-5-yl](3-hydroxyazetidin-1-yl)methanone]",143
22,"CCn1c2ccccc2c2cc(-c3nc4cc(C(=O)NC)ccc4n3CC3CC3)ccc21 [Example 24, 1-(Cyclopropylmethyl)-2-(9-ethyl-9H-carbazol-3-yl)-N-methyl-1H-benzimidazole-5-carboxamide]",338
23,"CCn1c2ccccc2c2cc(-c3nc4cc(C(=O)N(C)C)ccc4n3CC3CC3)ccc21 [Example 25, 1-(Cyclopropylmethyl)-2-(9-ethyl-9H-carbazol-3-yl)-N,N-dimethyl-1H-benzimidazole-5-carboxamide]",86.3
24,"CCn1c2ccccc2c2cc(-c3nc4cc(C(N)=O)ccc4n3CC3CC3)ccc21 [Example 26, 1-(Cyclopropylmethyl)-2-(9-ethyl-9H-carbazol-3-yl)-1H-benzimidazole-5-carboxamide]",176
25,"CCn1c2ccccc2c2cc(-c3nc4cc(C(=O)NCC(F)(F)F)ccc4n3CC3CC3)ccc21 [Example 27, 1-(Cyclopropylmethyl)-2-(9-ethyl-9H-carbazol-3-yl)-N-(2,2,2-trifluoroethyl)-1H-benzimidazole-5-carboxamide]",117
26,"CCn1c2ccccc2c2cc(-c3nc4cc(C(=O)N5CCNC(=O)C5)ccc4n3CC3CC3)ccc21 [Example 28, 4-{[1-(Cyclopropylmethyl)-2-(9-ethyl-9H-carbazol-3-yl)-1H-benzimidazol-5-yl]carbonyl}-piperazin-2-one]",122
